Experiments:
Assay type in all cases: in vivo
[1] = system: Echinochloa crus-galli (ECHCG); assay: Pre-emergence test, glasshouse; conditions: 250 g/ha
Protocol: (§1) Seeds of a variety of test species are sown in standard soil in pots Amaranthus retoflexus (AMARE), Abutilon theophrasti (ABUTH), Setaria faberi (SETFA), Echinochloa crus-galli (ECHCG), Ipomoea hederacea (IPOHE)). After cultivation for one day (pre-emergence) or after 8 days cultivation (post-emergence) under controlled conditions in a glasshouse (at 24/16° C., day/night; 14 hours light; 65% humidity), the plants are sprayed with an aqueous spray solution derived from the formulation of the technical active ingredient in acetone/water (50:50) solution containing 0.5% Tween 20 (polyoxyethelyene sorbitan monolaurate, CAS RN 9005-64-5). Compounds are applied at 250 g/ha unless otherwise stated. The test plants are then grown in a glasshouse under controlled conditions in a glasshouse (at 24/16° C., day/night; 14 hours light; 65% humidity) and watered twice daily. After 13 days for pre and post-emergence, the test is evaluated for the percentage damage caused to the plant. The biological activities are shown in the following table on a five-point scale (5=81-100%; 4=61-80%; 3=41-60%; 2=21-40%; 1=0-20%).

[2] = system: Ipomoea hederacea (IPOHE); assay: Pre-emergence test, glasshouse; conditions: 250 g/ha
Protocol: as §1

Setaria faberi (SETFA) [3] = assay: Pre-emergence test, glasshouse; conditions: 250 g/ha
Protocol: as §1

[4] = system: Amaranthus retoflexus (AMARE); assay: Pre-emergence test, glasshouse; conditions: 250 g/ha
Protocol: as §1

[5] = system: Abutilon theophrasti (ABUTH); assay: Pre-emergence test, glasshouse; conditions: 250 g/ha; for percentage damage caused to the plant, LABUTH: comparative test
Protocol: as §1

[6] = system: Echinochloa crus-galli (ECHCG); assay: Post-emergence test, glasshouse; conditions: 250 g/ha
Protocol: as §1

[7] = system: Ipomoea hederacea (IPOHE); assay: Post-emergence test, glasshouse; conditions: 250 g/ha
Protocol: as §1

Setaria faberi (SETFA) [8] = assay: Post-emergence test, glasshouse; conditions: 250 g/ha
Protocol: as §1

[9] = system: Amaranthus retoflexus (AMARE); assay: Post-emergence test, glasshouse; conditions: 250 g/ha
Protocol: as §1

[10] = system: Abutilon theophrasti (ABUTH); assay: Post-emergence test, glasshouse; conditions: 250 g/ha
Protocol: as §1

[11] = evaluated after 13 days, Table B2
[12] = evaluated after 13 days, Table B1

SMILES | percentage damage caused to the plant, ECHCG [1, 11] | percentage damage caused to the plant, ECHCG ([1]; comparative test) | percentage damage caused to the plant, IPOHE [2, 11] | percentage damage caused to the plant, IPOHE ([2]; comparative test) | percentage damage caused to the plant, SETFA (Setaria faberi (SETFA) [3]; [11]) | percentage damage caused to the plant, SETFA (Setaria faberi (SETFA) [3]; comparative test) | percentage damage caused to the plant, AMARE [4, 11] | percentage damage caused to the plant, AMARE ([4]; comparative test) | percentage damage caused to the plant, ABUTH [5, 11] | percentage damage caused to the plant, LABUTH [5] | percentage damage caused to the plant, ECHCG [6, 12] | percentage damage caused to the plant, ECHCG ([6]; comparative test) | percentage damage caused to the plant, IPOHE [7, 12] | percentage damage caused to the plant, IPOHE ([7]; comparative test) | percentage damage caused to the plant, SETFA (Setaria faberi (SETFA) [8]; [12]) | percentage damage caused to the plant, SETFA (Setaria faberi (SETFA) [8]; comparative test) | percentage damage caused to the plant, AMARE [9, 12] | percentage damage caused to the plant, AMARE ([9]; comparative test) | percentage damage caused to the plant, ABUTH [10, 12] | percentage damage caused to the plant, ABUTH ([10]; comparative test)
FC(F)(F)c1cc(Oc2ncc(Cl)cn2)n(-c2ccc(Cl)cc2)n1 [Compound 1.002] | 5 (5=81-100%) | 5 (5=81-100%) | 1 (1=0-20%) | 1 (1=0-20%) | 5 (5=81-100%) | 5 (5=81-100%) | 5 (5=81-100%) | 5 (5=81-100%) | 2 (2=21-40%) | 2 (2=21-40%) | 5 (5=81-100%) | 5 (5=81-100%) | 4 (4=61-80%) | 4 (4=61-80%) | 5 (5=81-100%) | 5 (5=81-100%) | 5 (5=81-100%) | 5 (5=81-100%) | 3 (3=41-60%) | 3 (3=41-60%)
Cc1cnc(Oc2cc(C(F)(F)F)nn2-c2ccc(C(F)(F)F)cc2)nc1 [Compound 1.020, 5-methyl-2-[5-(trifluoromethyl)-2-[4-(trifluoromethyl)phenyl]pyrazol-3-yl]oxy-pyrimidine] | 5 (5=81-100%) | – | 1 (1=0-20%) | – | 5 (5=81-100%) | – | 5 (5=81-100%) | – | – | – | 4 (4=61-80%) | – | 3 (3=41-60%) | – | 4 (4=61-80%) | – | 5 (5=81-100%) | – | – | –
FC(F)(F)c1ccc(-n2nc(C(F)(F)F)cc2Oc2ncc(Br)cn2)cc1 [Compound 1.036, 5-bromo-2-[5-(trifluoromethyl)-2-[4-(trifluoromethyl)phenyl]pyrazol-3-yl]oxy-pyrimidine] | 4 (4=61-80%) | – | 1 (1=0-20%) | – | 4 (4=61-80%) | – | 3 (3=41-60%) | – | – | – | 1 (1=0-20%) | – | 2 (2=21-40%) | – | 1 (1=0-20%) | – | 4 (4=61-80%) | – | – | –
Fc1cnc(Oc2cc(C(F)(F)F)nn2-c2ccc(C(F)(F)F)cc2)nc1 [Compound 1.021] | 5 (5=81-100%) | – | 2 (2=21-40%) | – | 5 (5=81-100%) | – | 5 (5=81-100%) | – | – | – | 5 (5=81-100%) | – | 4 (4=61-80%) | – | 4 (4=61-80%) | – | 4 (4=61-80%) | – | – | –
Cc1cc(Oc2ncc(Cl)cn2)n(-c2ccc(C(F)(F)F)cc2)n1 [Compound C1, reference compound] | – | 1 (1=0-20%) | – | 1 (1=0-20%) | – | 2 (2=21-40%) | – | – | – | 1 (1=0-20%) | – | 1 (1=0-20%) | – | 1 (1=0-20%) | – | 2 (2=21-40%) | – | 4 (4=61-80%) | – | 2 (2=21-40%)
FC(F)Oc1ccc(-n2nc(C(F)(F)F)cc2Oc2ncc(Cl)cn2)cc1 [Compound 1.028] | 1 (1=0-20%) | – | 1 (1=0-20%) | – | 2 (2=21-40%) | – | 2 (2=21-40%) | – | – | – | 2 (2=21-40%) | – | 1 (1=0-20%) | – | 2 (2=21-40%) | – | 4 (4=61-80%) | – | – | –

Source: patent US12522588B2, “Herbicidal compounds” (SYNGENTA CROP PROTECTION AG, priority 2020, dated 2026)
